Measured values taken from patent US8815535B2, “Disk diffusion assay for oritavancin” (The Medicines Company, priority 2011, dated 2014).
Where two headings read alike, the source gives them in different places.

Tests used:
MSSA ATCC 25923 = assay: Disk diffusion assay (zone of inhibition); type: cell-based, Staphylococcus aureus; details: Staphylococcus aureus; for zone of inhibition at 100 µg/disc: 100 μg in 4% P80/Span 80 (1:1); for zone of inhibition at 200 µg/disc: 200 μg in 4% P80/Span 80 (1:1); for zone of inhibition at 180 µg/disc: 180 μg; for zone of inhibition at 270 µg/disc: 270 μg
Description: (§1) The study was designed to identify conditions that improve oritavancin diffusion in agar and consequently yield a zone diameter ≧15 mm for the CLSI quality control strain MSSA ATCC 25923. Excipients that increased the disk diffusion of oritavancin in agar relative to disks containing only oritavancin were identified and selected for further study. […] A prediffusion step at room temperature was introduced to maximize oritavancin diffusion prior to initiation of bacterial growth. In this step, the antimicrobial disks were placed on agar plates seeded with a bacterial isolate and incubated at room temperature for 3 hours. Plates were then incubated overnight at 37° C. Zone diameters around the disks in which bacterial growth was inhibited were measured with a ruler and reported in millimeters.
(§2) Ethanol-sterilized Whatman paper disks (6 mm diameter) were allowed to dry then impregnated with 20 microliters of oritavancin solution containing total amounts ranging from 90 to 360 micrograms. Disks were allowed to dry at room temperature for various times prior to use.
Bacterial suspensions were prepared and adjusted to an optical density of 0.1 at 600 nm. […] The plate was swabbed a second time, perpendicular to the orientation of the first swab. To assess the impact of prediffusion on diameter of inhibition zones, two disks were immediately placed on one half of the plate and the plate was incubated for 3 hours at room temperature. After 3 hours, two additional disks were placed on the other half of the plate then the plate was incubated overnight at 37° C. Zone diameters were measured with a ruler and reported in millimeters. […]
(§3) Oritavancin powder was dissolved in freshly-prepared solutions of the indicated excipients at concentrations of 0.625, 1.25, 2.5, 5, and 10 mg/ml (adjusted for potency based on lot 875561L00 purity of 83.1%) by vortexing for a minimum of 5 minutes. Oritavancin solutions in the various excipients, while not visually clear, were free from any apparent particulates as assessed visually. Sterile Oxoid blank disks were impregnated with 20 μl of these oritavancin solutions, resulting in oritavancin disk loads ranging from 12.5 to 200 μg. Unless indicated otherwise, disks were allowed to dry overnight at room temperature prior to use.
[…] Swabbing was continued at a right angle and then at an oblique angle to the first and second swabs. Disks were placed upon the seeded plates with sterile forceps. Plates were then incubated overnight at 37° C. and inhibition zone diameters were measured with a ruler and reported in millimeters.

VISA NRS402 = assay: Disk diffusion assay (zone of inhibition); type: cell-based, Staphylococcus aureus; details: for zone of inhibition at 360 µg/disc: Staphylococcus aureus
Description: as §1, §2
Bacterial suspensions were prepared and adjusted to an optical density of 0.1 at 600 nm. Standard cation-adjusted Mueller Hinton agar plates (90 mm diameter) were seeded with bacterial suspensions by initially swabbing the center of plate then moving outward towards the edge. The plate was swabbed a second time, perpendicular to the orientation of the first swab. To assess the impact of prediffusion on diameter of inhibition zones, two disks were immediately placed on one half of the plate and the plate was incubated for 3 hours at room temperature. After 3 hours, two additional disks were placed on the other half of the plate then the plate was incubated overnight at 37° C. Zone diameters were measured with a ruler and reported in millimeters.
as §3
Bacterial suspensions from isolated colonies on overnight cation-adjusted Mueller Hinton agar plates were prepared in sterile saline and adjusted to an optical density of 0.1 at 600 nm Standard cation-adjusted Mueller Hinton agar plates (90 mm diameter) were seeded with bacterial suspensions by initially swabbing the center of plate then moving outward. Swabbing was continued at a right angle and then at an oblique angle to the first and second swabs. Disks were placed upon the seeded plates with sterile forceps. Plates were then incubated overnight at 37° C. and inhibition zone diameters were measured with a ruler and reported in millimeters.

[1] = read-out: Inhibition zone diameter, 25923, calcium alginate swab, dried overnight
[2] = read-out: Inhibition zone diameter, 25923, cotton swab, dried overnight, estimate of diameter
[3] = read-out: Inhibition zone diameter, MSSA ATCC 25923, Oxoid disk, 2.5% P80, stored 7 days, prediffusion 3 h at 4° C., duplicates
[4] = read-out: Inhibition zone diameter, MSSA ATCC 25923, Oxoid disk, 5% P80, stored 7 days, prediffusion 3 h at 4° C., duplicates
[5] = read-out: Inhibition zone diameter, MSSA ATCC 25923, Whatman #5 disk, 2.5% P80, stored 7 days, prediffusion 3 h at 4° C., duplicates
[6] = read-out: Inhibition zone diameter, MSSA ATCC 25923, Whatman #5 disk, 5% P80, stored 7 days, prediffusion 3 h at 4° C., duplicates

## CN[C@H](CC(C)C)C(=O)N[C@H]1C(=O)N[C@@H](CC(N)=O)C(=O)N[C@H]2C(=O)N[C@H]3C(=O)N[C@H](C(=O)N[C@H](C(=O)O)c4cc(O)cc(O)c4-c4cc3ccc4O)[C@H](O[C@H]3C[C@](C)(N)[C@@H](O)[C@H](C)O3)c3ccc(c(Cl)c3)Oc3cc2cc(c3O[C@@H]2O[C@H](CO)[C@@H](O)[C@H](O)[C@H]2O[C@H]2C[C@](C)(NCc3ccc(-c4ccc(Cl)cc4)cc3)[C@@H](O)[C@H](C)O2)Oc2ccc(cc2Cl)[C@H]1O [oritavancin, N-(4-(4-chlorophenyl)benzyl)A82846B]
MSSA ATCC 25923; read-out: Inhibition zone diameter, 25923, 50 μg in 4% P80/Span 80 (1:1), cotton swab, dried overnight, estimate of diameter
  zone of inhibition at 50 µg/disc: 24 mm
MSSA ATCC 25923; [1]
  zone of inhibition at 100 µg/disc: 14 mm
  zone of inhibition at 200 µg/disc: 11 mm
MSSA ATCC 25923; [2]
  zone of inhibition at 100 µg/disc: 21 mm
  zone of inhibition at 200 µg/disc: 15 mm
MSSA ATCC 25923; read-out: Inhibition zone diameter, ATCC 25923, 25 μg (20 μl of 1.25 mg/ml) in 4% P80/Span 80 (1:1), calcium alginate swab, dried overnight
  zone of inhibition at 1250 µg/mL: 21 mm
MSSA ATCC 25923; read-out: Inhibition zone diameter, ATCC 25923, 50 μg, 4% P80/Span 80 ratio 50:50, dried overnight, estimate of diameter
  zone of inhibition at 50 µg/disc: 23 mm
MSSA ATCC 25923; read-out: Inhibition zone diameter, ATCC 25923, 50 μg, 4% P80/Span 80 ratio 60:40, dried overnight, estimate of diameter
  zone of inhibition at 50 µg/disc: 21 mm
MSSA ATCC 25923; read-out: Inhibition zone diameter, ATCC 25923, 50 μg, 4% P80/Span 80 ratio 70:30, dried overnight, estimate of diameter
  zone of inhibition at 50 µg/disc: 19 mm
MSSA ATCC 25923; read-out: Inhibition zone diameter, ATCC 25923, 50 μg, 4% P80/Span 80 ratio 80:20, dried overnight, estimate of diameter
  zone of inhibition at 50 µg/disc: 16 mm
MSSA ATCC 25923; read-out: Inhibition zone diameter, ATCC 25923, 50 μg, 4% P80/Span 80 ratio 90:10, dried overnight, estimate of diameter
  zone of inhibition at 50 µg/disc: 13 mm
MSSA ATCC 25923; read-out: Inhibition zone diameter, ATCC 25923, 20 μl of 1.25 mg/ml oritavancin in 1% poly(ethylene glycol) sorbitol hexaoleate
  zone of inhibition at 1250 µg/mL: ≤ 15 mm
MSSA ATCC 25923; read-out: Inhibition zone diameter, ATCC 25923, 20 μl of 1.25 mg/ml oritavancin in 5% Brij 30
  zone of inhibition at 1250 µg/mL: ≤ 15 mm
MSSA ATCC 25923; read-out: Inhibition zone diameter, ATCC 25923, 20 μl of 1.25 mg/ml oritavancin in 5% Merpol SE
  zone of inhibition at 1250 µg/mL: ≤ 15 mm
MSSA ATCC 25923; read-out: Inhibition zone diameter, ATCC 25923, Oxoid disks, 20 μl of 18 mg/ml oritavancin in 5% P80, stored 30 days at room temperature, prediffusion 6 hours at 4° C.
  zone of inhibition at 18000 µg/mL: > 15 mm
MSSA ATCC 25923; read-out: Inhibition zone diameter, MSSA ATCC 25923, 20 μl of 1.25 mg/ml in 4% P80/Span 80 (1:1), cotton swab (FIG. 2), dried overnight
  zone of inhibition at 1250 µg/mL: ~24 mm
MSSA ATCC 25923; read-out: Inhibition zone diameter, MSSA ATCC 25923, 20 μl of 1.25 mg/ml in 4% P80/Span 80 (1:1), flocked swab (FIG. 2), dried overnight
  zone of inhibition at 1250 µg/mL: ~24 mm
MSSA ATCC 25923; read-out: Inhibition zone diameter, MSSA ATCC 25923, 20 μl of 1.25 mg/ml in 4% P80/Span 80 (1:1), foam swab (FIG. 2), dried overnight
  zone of inhibition at 1250 µg/mL: ~26 mm
MSSA ATCC 25923; read-out: Inhibition zone diameter, MSSA ATCC 25923, 20 μl of 1.25 mg/ml in 4% P80/Span 80 (1:1), polyester swab (FIG. 2), dried overnight
  zone of inhibition at 1250 µg/mL: ~24 mm
MSSA ATCC 25923; read-out: Inhibition zone diameter, MSSA ATCC 25923, 20 μl of 1.25 mg/ml in 4% P80/Span 80 (1:1), rayon swab (FIG. 2), dried overnight
  zone of inhibition at 1250 µg/mL: ~22 mm
MSSA ATCC 25923; [3]
  zone of inhibition at 180 µg/disc: 12.5 mm
  zone of inhibition at 270 µg/disc: 13 mm
MSSA ATCC 25923; [4]
  zone of inhibition at 180 µg/disc: 12 mm
  zone of inhibition at 270 µg/disc: 13 mm
MSSA ATCC 25923; read-out: Inhibition zone diameter, MSSA ATCC 25923, Oxoid disk, 360 μg, 2.5% P80, stored 7 days, prediffusion 3 h at 4° C., duplicates
  zone of inhibition at 360 µg/disc: 13 mm
MSSA ATCC 25923; read-out: Inhibition zone diameter, MSSA ATCC 25923, Oxoid disk, 360 μg, 5% P80, stored 7 days, prediffusion 3 h at 4° C., duplicates
  zone of inhibition at 360 µg/disc: 14 mm
MSSA ATCC 25923; [5]
  zone of inhibition at 180 µg/disc: 15.5 mm
  zone of inhibition at 270 µg/disc: 15.5 mm
MSSA ATCC 25923; [6]
  zone of inhibition at 180 µg/disc: 14.5 mm
  zone of inhibition at 270 µg/disc: 16 mm
MSSA ATCC 25923; read-out: Inhibition zone diameter, MSSA ATCC 25923, Whatman #5 disk, 360 μg, 2.5% P80, stored 7 days, prediffusion 3 h at 4° C., duplicates
  zone of inhibition at 360 µg/disc: 15.5 mm
MSSA ATCC 25923; read-out: Inhibition zone diameter, MSSA ATCC 25923, Whatman #5 disk, 360 μg, 5% P80, stored 7 days, prediffusion 3 h at 4° C., duplicates
  zone of inhibition at 360 µg/disc: 16 mm
MSSA ATCC 25923; read-out: Zone diameter (mm ± SD), ATCC 25923, 360 μg in 5% P80, Average of experiments, no prediffusion
  zone of inhibition at 360 µg/disc: 14.9 ± 0.5 mm
MSSA ATCC 25923; read-out: Zone diameter (mm ± SD), ATCC 25923, 360 μg in 5% P80, Average of experiments, prediffusion
  zone of inhibition at 360 µg/disc: 17.5 ± 0.6 mm
MSSA ATCC 25923; read-out: Zone diameter (mm ± SD), ATCC 25923, 360 μg in 5% P80, Experiment 1, disks stored 14 days, 3 h prediffusion at room temperature
  zone of inhibition at 360 µg/disc: 18 mm
MSSA ATCC 25923; read-out: Zone diameter (mm ± SD), ATCC 25923, 360 μg in 5% P80, Experiment 2, disks stored 8 days, 3 h prediffusion at room temperature
  zone of inhibition at 360 µg/disc: 17 mm
VISA NRS402; 25 μg (1.25 mg/ml) in 4% P80/Span 80 (1:1), dried overnight
  Inhibition zone diameter: no zone
VISA NRS402; 360 μg in 5% P80, Average of experiments, no prediffusion, read-out: Zone diameter (mm ± SD)
  zone of inhibition at 360 µg/disc: 13.1 ± 0.3 mm
VISA NRS402; 360 μg in 5% P80, Average of experiments, prediffusion, read-out: Zone diameter (mm ± SD)
  zone of inhibition at 360 µg/disc: 14.5 ± 0.4 mm
VISA NRS402; 360 μg in 5% P80, Experiment 1, disks stored 14 days, 3 h prediffusion at room temperature, read-out: Zone diameter (mm ± SD)
  zone of inhibition at 360 µg/disc: 14.8 ± 0.4 mm
VISA NRS402; 360 μg in 5% P80, Experiment 2, disks stored 8 days, 3 h prediffusion at room temperature, read-out: Zone diameter (mm ± SD)
  zone of inhibition at 360 µg/disc: 14.3 ± 0.4 mm
VISA NRS402; 360 μg oritavancin, excipient 5% P80, disks stored 5 days at room temperature, 3 h prediffusion, average of 2 disks, read-out: Average zone diameter
  zone of inhibition at 360 µg/disc: 14.8 mm
VISA NRS402; 3 h, 360 μg oritavancin, excipient 10% HPCD, disks made same day, 3 h prediffusion, average of 2 disks, read-out: Average zone diameter
  zone of inhibition at 360 µg/disc: 17.5 mm
VISA NRS402; 192 h, 360 μg in 5% P80, Experiment 2, disks stored 8 days, no prediffusion, read-out: Zone diameter (mm ± SD)
  zone of inhibition at 360 µg/disc: 13 mm
VISA NRS402; 336 h, 360 μg in 5% P80, Experiment 1, disks stored 14 days, no prediffusion, read-out: Zone diameter (mm ± SD)
  zone of inhibition at 360 µg/disc: 13.3 ± 0.4 mm
